# Measurements as given in patent US20110034526A1, “Benzimidazole Compounds” (Wyeth LLC, priority 2007, published 2011).
# Columns and labels:
# ABCA1 gene = assay: Quantitative analysis of ABCA1 gene regulation in THP-1 cells (real-time PCR); type: cell-based, human; conditions: Gene regulation by LXR (Human); differentiated THP-1 cells, 18 hrs, ABCA1 mRNA; read-out: EC50 ABCA1
# Procedure: The compounds of formula (I) effect on the regulation of the ABCA1 gene was evaluated using the following procedure.
# The THP-1 monocytic cell line (ATCC # TIB-202) was obtained from American Type Culture Collection (Manassas, Va.) and cultured in RPMI 1640 medium (Gibco, Carlsbad, Calif.) containing 10% FBS, 2 mM L-glutamine, and 55 uM beta-Mercaptoethanol (BME). […] Differentiated THP-1 cells were treated with test compounds or ligands dissolved in DMSO (Sigma, D-8779) in culture medium lacking phorbal ester. […] Unstimulated cells treated with vehicle were included as negative controls on each plate. An LXR agonist reference, N-(2,2,2-trifluoro-ethyl)-N-[4-(2,2,2-trifluoro-1-hydroxy-1-trifluoromethyl-ethyl)-phenyl]-benzenesulfonamide (Schultz, Joshua R., Genes & Development (2000), 14(22), 2831-2838), was dosed at 1.0 uM and served as a positive control. […] Results of antagonist analysis are expressed as % antagonism and IC50 (in μM).
# Total cellular RNA was isolated from treated cells cultured in 96-well plates using PrepStation 6100 (Applied Biosystems, Foster City, Calif.), according to the manufacturer's recommendations. RNA was resuspended in ribonuclease-free water and stored at −70° C. prior to analysis. RNA concentrations were quantitated with RiboGreen test procedure, #R-11490 (Molecular Probes, Eugene, Oreg.).
# Gene-specific mRNA quantitation was performed by real-time PCR with the Perkin Elmer Corp. chemistry on an ABI Prism 7700 Sequence detection system (Applied Biosystems, Foster City, Calif.) according to the manufacturer's instructions. Samples (50-100 ng) of total RNA were assayed in duplicate or triplicate in 50 μl reactions using one-step RT-PCR and the standard curve method to estimate specific mRNA concentrations. Sequences of gene-specific primer and probe sets were designed with Primer Express Software (Applied Biosystems, Foster City, Calif.). […] RT and PCR reactions were performed according to PE Applied Biosystem's protocol for Taqman Gold RT-PCR or Qiagen's protocol for Quantitect probe RT-PCR. Relative levels of ABCA1 mRNA are normalized using GAPDH mRNA or 18S rRNA probe/primer sets purchased commercially (Applied Biosystems, Foster City, Calif.).
# Mean, standard deviation and statistical significance of duplicate evaluations of RNA samples were assessed using ANOVA, one-way analysis of variance using SAS analysis.
# human LXRβ = target: T1, human LXRβ (Homo sapiens, UniProt P55055); assay: Ligand-binding test procedure for human LXRβ (3H T0901317 tracer, flash plates)
# T1 construct: biotin (biotinylated); made in house; host or cells: E. coli (crude extract)
# T1 sequence (P55055 1-460): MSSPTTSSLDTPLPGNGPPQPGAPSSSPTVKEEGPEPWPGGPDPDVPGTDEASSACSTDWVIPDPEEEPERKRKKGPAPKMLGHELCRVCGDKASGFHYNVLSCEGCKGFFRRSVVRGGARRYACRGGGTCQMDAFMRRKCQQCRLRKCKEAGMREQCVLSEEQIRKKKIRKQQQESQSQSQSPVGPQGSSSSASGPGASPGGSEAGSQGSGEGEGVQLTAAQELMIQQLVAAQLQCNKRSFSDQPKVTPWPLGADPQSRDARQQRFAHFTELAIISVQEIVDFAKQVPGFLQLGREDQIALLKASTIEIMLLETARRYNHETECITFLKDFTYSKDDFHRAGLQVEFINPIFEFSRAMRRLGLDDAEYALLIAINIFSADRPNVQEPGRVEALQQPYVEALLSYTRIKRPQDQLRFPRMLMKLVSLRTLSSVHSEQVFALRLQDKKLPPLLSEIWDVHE
# Procedure: Receptor source: E. coli extracted from cells expressing biotinylated hLXRβ. Extract was made in a similar buffer as above, but with 50 mM TRIS.
# Washed streptavidin and coated flash plates with wash buffer. Diluted receptor extract to give Bmax ˜4000 cpm and add to the wells. Wrapped the plates in aluminum foil and stored them at +4° C. overnight.
# (§1) Made a dilution series in DMSO of the test ligands. Made a 5 nM solution of the radioactive tracer in buffer. Mixed 250 μl diluted tracer with 5 μl of the test ligand from each concentration of the dilution series. Washed the receptor-coated flash plates. Added 200 μl per well of the ligand/radiolabel mixture to the receptor-coated flash plates. Wrapped the plates in aluminum foil and incubate at +4° C. over night.
# Aspirated wells, and washed the flashed plates. Sealed the plate. Measured the remaining radioactivity in the plate.
# human LXRα = target: T2, human LXRα (Homo sapiens, UniProt Q13133); assay: Ligand-binding test procedure for human LXRα (3H T0901317 tracer, flash plates); conditions: biotinylated hLXRα, tracer 3H T0901317
# T2 construct: biotin (biotinylated); made in house; host or cells: E. coli (crude extract)
# T2 sequence (Q13133 1-447): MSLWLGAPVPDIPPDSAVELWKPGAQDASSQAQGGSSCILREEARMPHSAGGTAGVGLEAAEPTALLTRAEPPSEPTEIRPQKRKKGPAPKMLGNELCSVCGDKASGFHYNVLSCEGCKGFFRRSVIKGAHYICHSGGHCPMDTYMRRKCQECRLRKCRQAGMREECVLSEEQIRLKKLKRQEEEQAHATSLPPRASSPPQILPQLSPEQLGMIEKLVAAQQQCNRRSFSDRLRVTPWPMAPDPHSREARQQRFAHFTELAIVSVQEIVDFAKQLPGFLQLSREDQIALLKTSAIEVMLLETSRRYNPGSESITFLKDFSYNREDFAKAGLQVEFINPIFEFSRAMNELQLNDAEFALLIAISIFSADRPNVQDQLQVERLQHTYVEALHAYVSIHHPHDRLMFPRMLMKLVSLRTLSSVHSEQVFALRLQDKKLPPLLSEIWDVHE
# Procedure: Receptor source: E. coli extract from cells expressing biotinylated hLXRcc. Extract was made in a similar buffer as above, but with 50 mM TRIS.
# Washed streptavidin and coated flash plates with wash buffer. Diluted receptor extract to give Bmax ˜4000 cpm and add to the wells. Wrapped the plates in aluminum foil and stored them at +4° C. over night.
# as §1
# Aspirated wells, and wash the flashed plates. Sealed the plate. Measured the remaining radioactivity in the plate.
IC50 (human LXRβ) [nM],IC50 (human LXRα) [nM],SMILES,EC50 (ABCA1 gene) [nM]
,,"CS(=O)(=O)c1cccc(Oc2cccc(-n3cnc4c(C(F)(F)F)cccc43)c2)c1 [Example 25, 1-{3-[3-(methylsulfonyl)phenoxy]phenyl}-4-(trifluoromethyl)-1H-benzimidazole]",907
,,"Cc1nc2c(Cl)cccc2n1-c1cccc(Oc2cccc(S(C)(=O)=O)c2)c1 [Example 40, 4-chloro-2-methyl-1-{3-[3-(methylsulfonyl)phenoxy]phenyl}-1H-benzimidazole]",315
,,"Cc1nc2c(C(F)(F)F)cccc2n1-c1cccc(Oc2cccc(S(=O)(=O)CCCO)c2)c1 [Example 9, 3-[(3-{3-[2-methyl-4-(trifluoromethyl)-1H-benzimidazol-1-yl]phenoxy}-phenyl)sulfonyl]propan-1-ol]",610
,,"Cc1nc2c(C(F)(F)F)cccc2n1-c1cccc(Oc2cc(F)cc(S(C)(=O)=O)c2)c1 [Example 8, 1-{3-[3-fluoro-5-(methylsulfonyl)phenoxy]phenyl}-2-methyl-4-(trifluoromethyl)-1H-benzimidazole]",430
,,"Cc1nc2c(Cl)cccc2n1-c1cccc(Oc2cccc(S(=O)(=O)C(F)(F)F)c2)c1 [Example 47, 4-chloro-2-methyl-1-(3-{3-[(trifluoromethyl)sulfonyl]phenoxy}phenyl)-1H-benzimidazole]",215
,,"CCS(=O)(=O)c1cccc(Oc2cccc(-n3c(C)nc4c(C(F)(F)F)cccc43)c2)c1 [Example 5, 1-{3-[3-(ethylsulfonyl)phenoxy]phenyl}-2-methyl-4-(trifluoromethyl)-1H-benzimidazole]",395
,,"CS(=O)(=O)c1cccc(Oc2cccc(-n3c(-c4ccccc4)nc4c(C(F)(F)F)cccc43)c2)c1 [Example 30, 1-{3-[3-(methylsulfonyl)phenoxy]phenyl}-2-phenyl-4-(trifluoromethyl)-1H-benzimidazole]",160
,,"Cc1nc2c(C(F)(F)F)cccc2n1-c1cccc(Oc2cccc(S(=O)(=O)C(C)C)c2)c1 [Example 6, 1-{3-[3-(isopropylsulfonyl)phenoxy]phenyl}-2-methyl-4-(trifluoromethyl)-1H-benzimidazole]",710
,,"CS(=O)(=O)c1cccc(Oc2cccc(-n3c(C4CC4)nc4c(C(F)(F)F)cccc43)c2)c1 [Example 31, 2-cyclopropyl-1-{3-[3-(methylsulfonyl)phenoxy]phenyl}-4-(trifluoromethyl)-1H-benzimidazole]",760
,,"CCc1nc2c(C(F)(F)F)cccc2n1-c1cccc(Oc2cccc(S(C)(=O)=O)c2)c1 [Example 26, 2-ethyl-1-{3-[3-(methylsulfonyl)phenoxy]phenyl}-4-(trifluoromethyl)-1H-benzimidazole]",140
,,"CCS(=O)(=O)c1cccc(Oc2cccc(-n3c(C)nc4c(Cl)cccc43)c2)c1 [Example 41, 4-chloro-1-{3-[3-(ethylsulfonyl)phenoxy]phenyl}-2-methyl-1H-benzimidazole]",745
92,1370,"CC(C)S(=O)(=O)c1cccc(Oc2cccc(-n3c(C(F)(F)F)nc4c(C(F)(F)F)cccc43)c2)c1 [Example 78, 1-{3-[3-(isopropylsulfonyl)phenoxy]phenyl}-2,4-bis(trifluoromethyl)-1H-benzimidazole]",
1890,5070,"CCc1nc2c(C(F)(F)F)cccc2n1-c1ccc(OCc2cccc(S(C)(=O)=O)c2)cc1 [Example 85, 2-ethyl-1-(4-{[3-(methylsulfonyl)benzyl]oxy}phenyl)-4-(trifluoromethyl)-1H-benzimidazole]",
235,2670,"Cc1nc2c(C(F)(F)F)cccc2n1-c1ccc(Oc2cc(F)cc(S(C)(=O)=O)c2)cc1Cl [Example 103, 1-{2-chloro-4-[3-fluoro-5-(methylsulfonyl)phenoxy]phenyl}-2-methyl-4-(trifluoromethyl)-1H-benzimidazole]",
357,3000,"Cc1nc2c(Cl)cccc2n1-c1cccc(Oc2ccc(S(C)(=O)=O)cc2F)c1 [Example 52, 4-chloro-1-{3-[2-fluoro-4-(methylsulfonyl)phenoxy]phenyl}-2-methyl-1H-benzimidazole]",
